SMILES strings stand for the structures.

A short description of the series: Solubility studies in 50/50 alcohol/ethyl lactate blends. As to conditions: for Final concentration dissolved (clear, free of particulates): ambient temperature about 20-25 C.

As to `Clc1ccccc1C(c1ccccc1)(c1ccccc1)n1ccnc1` [clotrimazole, Clotrimazole], the Solubility entry (ethanol/ethyl lactate 50/50 blend (conclusion)) is “greater than 10 % w/w” and the Solubility entry (isopropanol/ethyl lactate 50/50 blend (conclusion)) is recorded as “greater than 10 % w/w”. In addition, the “Final concentration dissolved (clear, free of particulates)” value by setting is: (ethyl alcohol/ethyl lactate blend 50/50 w/w) 10.31%; (isopropyl alcohol/ethyl lactate blend 50/50 w/w) 10.07%.

For the origin of these results see US20210113441A1, “BIOSOLVENT MIXTURE REMOVAL OF INFECTION-CAUSED NAIL DISCOLORATION” (Vertec BioSolvents, Inc., priority 2019, published 2021).
